Like-named read-outs stand apart in the source and are kept apart here.
Assays:
[1] = cited from earlier work
[2] = in vivo; cited from earlier work
[3] = Intrasite vancomycin pharmacodynamics trial: systemic circulation serum vancomycin concentration; assay type: in vivo, human; conditions: all measured time-points, single IS dose (2 mg/cm^2; moderate doses); detectability limit printed >1.7 μg/ml
Experimental: (§1) Intrasite Vancomycin Pharmacodynamics Trial.
Intrasite Dosing of Vancomycin.
Systemic Circulation Serum Vancomycin Concentrations after IS Dose. In all of the 10 patients of the 2 mg/cm^2 dose cohort serum vancomycin levels remained undetectable at all measured time-points after a single IS dose. Detectability limit in these experiments was >1.7 μg/ml. This is interpreted as a strong indicator of safety with regard to systemic side effects and toxicities as well as evidence of a very wide therapeutic index when vancomycin is administered IS. This strongly contrasts to the higher probability of systemic toxicity and narrow therapeutic index when vancomycin is administered IV.

[4] = tested on: Vancomycin-Resistant Staphylococcus aureus (VRSA); conditions: certain strains of VRSA; cited from earlier work
[5] = Intrasite vancomycin pharmacodynamics trial: wound seroma vancomycin levels via wound drain
Experimental: Intrasite Vancomycin Pharmacodynamics Trial. A single dose cohort pharmacodynamics trial was performed under FDA IND# 117494, the first FDA IND awarded for intrasite vancomycin. This dose cohort involved administration of a low dose of intrasite lyophilized vancomycin into complex instrumented spinal surgery wounds in adult patients. At multiple specific time points after surgery measurements were taken of vancomycin and […] levels in the blood stream and from the wound seroma fluid (via the wound drain). Measurements of endotoxin levels within the blood stream and seroma fluid were also taken at the same time points following surgery. All personnel present during administration of IS vancomycin were required to wear a certified fit N-90 mask to prevent inhalation of aerosolized vancomycin powder, which is a known safety risk for pulmonary fibrosis.
Intrasite Dosing of Vancomycin. Intrasite dosing was based on the surface area of the wound (tissues within the spinal wound lying deep to the skin). Wound surface area was estimated by a wound Length×Depth×2 calculation where length and mean depth were measured directed by the surgeon after surgical opening of the wound was completed. To assure safety, the maximum IS dose of vancomycin given to patients in this cohort was limited to well below the normal maximum safe IV dose of 2.5 g. Given that maximum wound surface areas created in spinal deformity patients are on the order of 1000 cm^2, a surface area dose of 2 mg/cm^2 provides for a maximum single dose of ˜2 g IS vancomycin, considered safe even if the entire dose absorbed into the circulation. To improve the homogeneity of IS dose application one third of the total calculated dose was delivered to the subepidermal tissues of the wound, superficial to the perimuscular fascia, one third of the total dose was applied to the subfascial muscle, bone, and other tissues, and one third of the total dose was milled with the bone graft before implantation.
Wound Vancomycin Levels Following a Single Intrasite Dose. Wound seroma vancomycin levels were measured via the wound drain at multiple time points for 4 days after a single intrasite dose given at the conclusion of surgery. […] However, vancomycin is a time-dependent killer of microbes and levels must exceed kill concentrations for up to 48 hrs to be completely effective.

[6] = Intrasite vancomycin pharmacodynamics trial: adverse reactions; assay type: in vivo, human; conditions: IS dose 2 mg/cm^2, spinal surgery patients
From the text: as §1
Adverse Reactions to IS Vancomycin. […] There was one example of a post-operative gram-negative bacterial surgical site infection which could not have been prevented by vancomycin because its spectrum of antimicrobial effects dies not cover this organism.

[7] = measured at 2 hrs after single IS dose 2 mg/cm^2, 10 patients
[8] = single IS dose 2 mg/cm^2, 10 patients
[9] = within the first 48 hrs after single IS dose 2 mg/cm^2, 10 patients

CO[C@H]1/C=C/O[C@@]2(C)Oc3c(C)c(O)c4c(O)c(c5c(nc6cc(C)ccn65)c4c3C2=O)NC(=O)/C(C)=C\C=C\[C@H](C)[C@H](O)[C@@H](C)[C@@H](O)[C@@H](C)[C@H](OC(C)=O)[C@@H]1C [Rifaximin]
oral bioavailability ([1]; in vivo, po): < 0.4%

NC[C@H]1CC[C@H](C(=O)O)CC1 [TXA, trans-4-[aminomethyl]cyclohexanecarboxylic acid]
oral bioavailability ([1]; oral): 34%
half-life in the blood stream [2]: approximately 2 hrs

CN[C@H](CC(C)C)C(=O)N[C@H]1C(=O)N[C@@H](CC(N)=O)C(=O)N[C@H]2C(=O)N[C@H]3C(=O)N[C@H](C(=O)N[C@H](C(=O)O)c4cc(O)cc(O)c4-c4cc3ccc4O)[C@H](O)c3ccc(c(Cl)c3)Oc3cc2cc(c3O[C@@H]2O[C@H](CO)[C@@H](O)[C@H](O)[C@H]2O[C@H]2C[C@](C)(N)[C@H](O)[C@H](C)O2)Oc2ccc(cc2Cl)[C@H]1O [vancomycin]
serum vancomycin level after IS dose [3]: undetectable
minimum 90% bactericidal concentration (MBC^90) [4]: 64 µg/mL
highest vancomycin concentration, subfascial wound compartment [5, 7]: 952 µg/mL
highest vancomycin concentration, suprafascial wound compartment [5, 7]: 6110 µg/mL
time vancomycin remains in high enough wound concentration for efficient suppression of gram-positive microorganisms ([5]; moderate IS doses, also with seroma fluid removed via drains, preliminary evidence): at least 4 days
time mean subfascial vancomycin concentration exceeds threshold to kill VRSA (128 μg/ml) [5, 8]: less than 24 hrs
time mean suprafascial vancomycin concentration exceeds threshold to kill VRSA (128 μg/ml) [5, 8]: more than 48 hrs
lowest vancomycin concentration, subfascial wound compartment [5, 9]: 4.1 µg/mL
lowest vancomycin concentration, suprafascial wound compartment [5, 9]: 16.2 µg/mL
adverse reactions related to IS vancomycin [6]: no patient- or practitioner-identified adverse reactions

Reference: US20180221296A1, “INTRASITE ADMINISTRATION AND DOSING METHODS AND PHARMACEUTICALS FOR USE THEREIN” (HKL Medical, LLC, priority 2017, published 2018)
